Results taken from patent publication US9034826B2, “Use of epidermal growth factor for the morphofunctional restoration of peripheral nerves in diabetic neuropathy” (Centro de Ingenieria Genetica y Biotecnologia, priority 2006, dated 2015).

What was measured:
Type in all cases: in vivo, Wistar rats
right sciatic nerve = test: Laser Doppler Perfusion Imaging of blood perfusion of a peripheral nerve, reversion study (Example 2); conditions: established diabetic neuropathy, 100 μg EGF in 1 ml i.p. 3 days a week for one month
Source text: The right sciatic nerve of rats was used as a model. Ten animals were included for each one of the experimental groups. A similar number of non diabetic rats were used to calculate the reference values. A Laser Doppler Perfusion Imaging (LDPI) system was used. Data of perfusion in peripheral tissues to the nerve were programmed as zero values. Control animals received saline during two months before the measurement. All determinations were done under the same conditions of anesthesia and environmental conditions. They are reflected in Table 5. The aim of this study was to evaluate the neurorestoration effect of the pharmaceutical composition. Male Wistar rats between 200-250 grams of body is weight received a subcutaneous injection of streptozotocin at 75 mg/kg in sodium citrate buffer, and were allowed to evolve until 120 days after disease induction. All rats used in this experiment had shown sustained glucose levels above 15 mmol/L. Animals were handled and fed as previously described. A concurrent control group was set, where animals received saline instead of streptozotocin. […] After this period an electrophysiological characterization of all rats were done and animals were split in two random treatment groups: Group II. Animals received the pharmaceutical composition with 100 μg of EGF in 1 ml, 3 days a week, by intraperitoneal route. […]

Lipoprotein Lipase (LPL) = test: Lipoprotein lipase (LPL) enzymatic activity in sciatic nerve fragments, prevention study (Example 1)
Procedure: (§1) Male Wistar, with 200-250 grams of body weight, received a subcutaneous injection of streptozotocin, at 75 mg/kg in sodium citrate buffer. Water was then replaced by a 10% sucrose solution during the next 24 h, to prevent deaths caused by hypoglycemia. Glucose levels in blood were monitored every morning during the next 72 hours after the injection. Only animals with sustained glucose values above 15 mmol/L were used. Rats were housing at 4 per cage and fed in the conventional way. A concurrent group of other 80 rats received citrate buffer without streptozotocin and was handled in a similar fashion to the diabetic group. The average value for glycemia during the 72 hours in this group was 5.87 mmol/L.
(§2) All treatments were conducted during 8 weeks, starting one week after streptozotocin injection. The composition used contained 75 μg of human recombinant EGF/ml. Several types of observations were conducted in the animals under study:
Fragments of the nerve from each animal were incubated together with 3 μg/ml heparin in Krebs-Ringer buffer at 37° C. for 50 minutes. Aliquots from these samples were then incubated in the presence of [^14C] triolein-phosphatidylcholine. ^14C labeled fatty acids were quantified by the classic methods. LPL activity was expressed in nanomoles of released fatty acids (RFA) per minute and gram of tissue.

diabetic rats [1] = test: Motor conduction velocity, sciatic-tibial route, prevention study (Example 1); conditions: 75 μg EGF/ml, day 60
Procedure: as §1, §2
Fifteen animals were used in each experimental group. In diabetic neuropathy conduction velocity is generally diminished.
Distal supra-maximal stimulation in the sciatic-tibial route using bipolar electrodes is was used to study motor conduction. Determination of the conduction velocity in the sensory routes was carried out by applying a stimulus at a proximal point in the tail and measure it 3 cm away.

diabetic rats [2] = test: Nociceptive threshold (NCT) pain test, prevention of diabetic neuropathy (Example 1); conditions: 75 μg EGF/ml
Procedure: as §1, with “group.” for “group. The average value for glycemia during the 72 hours in this group was 5.87 mmol/L.”
as §2
The pain test, by application of an increasing pressure in the tail, was carried out at days 28 and 56 after initiation of the treatment, using 10 animals per each one of the experimental groups. NCT, expressed in grams, was determined by using an Ugo Basile type analgesimeter to apply a gradually increasing pressure to the tail of the animals until they developed a withdrawal reflex. In human diabetic neuropathy the nociceptive threshold is reduced.

sciatic nerve = test: Histomorphometric study on fragments of the sciatic nerve, prevention study (Example 1); conditions: day 70 after induction of diabetes; for Number of blood vessels: 10 microscopic fields
Procedure: as §1, §2
Once the treatment was concluded, animals were sacrificed at day 70 after induction of diabetes, 10 days after the last dose was given, and the analysis described above is was completed. Animals were sacrificed by an overdose of anesthesia and perfused with saline buffer pH 7.4. A total of ten animals per experimental group were included for histomorphometric studies, and an equivalent number of rats were used for biochemical determinations. In both systems the sciatic nerves from both limbs were dissected; fragments were kept at −70° C. until processed. The samples taken for histological and/or histomorphometric studies were stained with hematoxilin/eosin and toluidine blue. At least five fragments of the same nerve were quantitatively studied using MADIP program. The fragments were included in blocks of celloidine and gelatin, and those blocks were horizontal and transversally sliced. The following histological indicators were evaluated: • Total number of blood vessels (in epineural/perineural) in 10 microscopic fields using 10× as constant magnification in longitudinal cuts of the nerve. • Percentage of demyelinated fibers. Evaluated by averaging the values per microscopic field (×20, at least five fields). • Percentage of myelin or non-myelin fibers with lesions (dilated or distorted) per microscopic field (×20, at least five fields). • Percentage of endoneurial collagenization (moderated: 25 to 50%; severe: more than 50% of the endoneurial area in transversal slices, and at least three different sections.

[3] = Treatment group 1 (once weekly i.p., 8 weeks)
[4] = Treatment group 3 (three times a week i.p., 8 weeks)

Q: With “EGF containing pharmaceutical composition: Composition with human recombinant EGF: 75 μg/ml in Example 1, 100 μg in 1 ml in Example 2, given intraperitoneally” as the substance, how does the “Laser Doppler perfusion of the sciatic nerve” value (right sciatic nerve) read?
A: The value was 934 ± 60.18 LDPI Units.

Q: What about the “LPL activity in the sciatic nerve” value (Lipoprotein Lipase (LPL); [3]) of the same substance?
A: The value was 3.75 ± 2.2 nmoles RFA/min/g.

Q: What about the “LPL activity in the sciatic nerve” value (Lipoprotein Lipase (LPL); [4]) of the same substance?
A: The value was 5.41 ± 1.83 nmoles RFA/min/g.

Q: And the “MCV (motor conduction velocity)” value (diabetic rats [1]; 1 ml i.p. once weekly (Treatment group 1))?
A: The value was 45 ± 13 m/s.

Q: And the “MCV (motor conduction velocity)” value (diabetic rats [1]; 1 ml i.p. three times a week (Treatment group 3))?
A: The value was 56 ± 11 m/s.

Q: And the NCT (diabetic rats [2]; 1 ml i.p. once weekly (Treatment group 1), day 28)?
A: Its NCT is 125 ± 18 grams.

Q: What about the NCT (diabetic rats [2]; 1 ml i.p. three times a week (Treatment group 3), day 28) of the same substance?
A: The NCT was 123 ± 16 grams.

Q: And the NCT (diabetic rats [2]; 1 ml i.p. three times a week (Treatment group 3), day 56)?
A: Its NCT is 121 ± 22 grams.

Q: And the “Number of blood vessels” value (sciatic nerve; [3])?
A: The value was 111.33 ± 14.5.

Q: What about the “% of collagenized area” value (sciatic nerve; [3]) of the same substance?
A: The value was 42.69 ± 14.71%.

Q: And the “% of demyelinated fibers” value (sciatic nerve; [3])?
A: The value was 51.2 ± 17.94%.

Q: And the “% of fibers with lesions” value (sciatic nerve; [3])?
A: The value was 60.12 ± 11%.

Q: And the “Number of blood vessels” value (sciatic nerve; [4])?
A: The value was 158.6 ± 26.12.

Q: What about the “% of collagenized area” value (sciatic nerve; [4]) of the same substance?
A: The value was 13.45 ± 11.82%.

Q: What about the “% of demyelinated fibers” value (sciatic nerve; [4]) of the same substance?
A: The value was 35.56 ± 12.18%.

Q: And the “% of fibers with lesions” value (sciatic nerve; [4])?
A: Its value is 41.38 ± 10.26%.
